Like-named read-outs stand apart in the source and are kept apart here.

In one assay the target is T1, VEGFR2 (KDR) (Homo sapiens, UniProt P35968).
T1 construct: made in house; host or cells: Sf9 cells (Spodoptera frugiperda), baculovirus
In words: In vitro receptor tyrosine kinase assay (VEGF receptor KDR), DELFIA. Format: biochemical. As to conditions: recombinant GST-VEGFR2 806-1356, ATP 0.6 uM; read-out: VEGFR IC50UM. From the text:
In Vitro Receptor Tyrosine Kinase Assay (VEGF Receptor KDR)
This test measures the ability of compounds to inhibit the enzymatic activity of recombinant human VEGF receptor enzymatic activity.
A 1.6-kb cDNA corresponding to the catalytic domain of VEGFR2 (KDR) (Genbank accession number AF035121 amino acid 806 to 1356) is cloned into the Pst I site of the pDEST20 Gateway vector (Invitrogen) for the production of a GST-tagged version of that enzyme. This construct is used to generate recombinant baculovirus using the Bac-to-Bac™ system according to the manufacturer's instructions (Invitrogen).
The GST-VEGFR2806-1356 protein is expressed in Sf9 cells (Spodoptera frugiperda) upon infection with recombinant baculovirus construct. Briefly, Sf9 cells grown in suspension and maintained in serum-free medium (Sf900 II supplemented with gentamycin) at a cell density of about 2×10^6 cells/ml are infected with the above-mentioned viruses at a multiplicity of infection (MOI) of 0.1 during 72 hours at 27° C. with agitation at 120 rpm on a rotary shaker. Infected cells are harvested by centrifugation at 398 g for 15 min. Cell pellets are frozen at −80° C. until purification is performed.
All steps described in cell extraction and purification are performed at 4° C. Frozen Sf9 cell pellets infected with the GST-VEGFR2806-1356 recombinant baculovirus are thawed and gently resuspended in Buffer A (PBS pH 7.3 supplemented with 1 μg/ml pepstatin, 2 μg/ml Aprotinin and leupeptin, 50 μg/ml PMSF, 50 μg/ml TLCK and 10 μM E64 and 0.5 mM DTT) using 3 ml of buffer per gram of cells. Suspension is Dounce homogenized and 1% Triton X-100 is added to the homogenate after which it is centrifuged at 22500 g, 30 min., 4° C. The supernatant (cell extract) is used as starting material for purification of GST-VEGFR2806-1356.
The supernatant is loaded onto a GST-agarose column (Sigma) equilibrated with PBS pH 7.3. Following a four column volume (CV) wash with PBS pH 7.3+1% Triton X-100 and 4 CV wash with buffer B (50 mM Tris pH 8.0, 20% glycerol and 100 mM NaCl), bound proteins are step eluted with 5 CV of buffer B supplemented with 5 mM DTT and 15 mM glutathion. GST-VEGFR2806-1356 enriched fractions from this chromatography step are pooled based on U.V. trace i.e. fractions with high O.D.280. Final GST-VEGFR2806-1356 protein preparations concentrations are about 0.7 mg/ml with purity approximating 70%. Purified GST-VEGFR2806-1356 protein stocks are aliquoted and frozen at −80° C. prior to use in enzymatic assay.
Inhibition of VEGFR/KDR is measured in a DELFIA™ assay (Perkin Elmer). The substrate poly(Glu4,Tyr) is immobilized onto black high-binding polystyrene 96-well plates. The coated plates are washed and stored at 4° C. During the assay, the enzyme is pre-incubated with inhibitor and Mg-ATP on ice in polypropylene 96-well plates for 4 minutes, and then transferred to the coated plates. The subsequent kinase reaction takes place at 30° C. for 10-30 minutes. ATP concentrations in the assay are 0.6 uM for VEGFR/KDR (2× the Km). Enzyme concentration is 5 nM. After incubation, the kinase reactions are quenched with EDTA and the plates are washed. Phosphorylated product is detected by incubation with Europium-labeled anti-phosphotyrosine MoAb. After washing the plates, bound MoAb is detected by time-resolved fluorescence in a Gemini SpectraMax reader (Molecular Devices). Compounds are evaluated over a range of concentrations, and IC50 values (concentration of compounds giving 50% inhibition of enzymatic activity) are determined.

The subject of assay [1] is phospho ERK1/2 (T202/Y204) in HUVEC cells. In words: VEGF-dependent Erk phosphorylation. Format: cell-based. As to conditions: VEGF165 150 ng/ml, Western blot, read-out: P_ERK IC50UM. From the text:
VEGF-Dependent Erk Phosphorylation
HUVEC cells are purchased from Cambrex Bio Science Walkersville, Inc and cultured according to the vendor's instructions. The full-length coding sequence of VEGF165 is cloned using the Gateway Cloning Technology (Invitrogen) for baculovirus expression Sf9 cells. VEGF165 is purified from conditioned media using a NaCl gradient elution from a HiTrap heparin column (GE Healthcare Life Sciences) followed by an imidazole gradient elution from a HiTrap chelating column (GE Healthcare Life Sciences), then buffer stored in PBS supplemented with 0.1% BSA and filter sterilized
Cells are seeded at 8000 cells/well of a 96 wells plate and grown for 48 hours. Cells are then grown overnight in serum and growth factor-free medium and exposed for 1.5 h to compounds dilutions. Following a 15 min incubation in medium, VEGF165 (150 ng/ml) cells are lysed in ice-cold lysis buffer (50 mM HEPES, pH 7.4, 150 mM NaCl, 1.5 mM MgCl2, 1% Triton X-100, 10% glycerol) containing 1 mM 4-(2 aminoethyl)benzenesulfonyl fluoride hydrochloride, 200 μM sodium orthovanadate, 1 mM sodium fluoride, 10 μg/mL leupeptin, 10 μg/mL aprotinin, 1 μg/mL pepstatin and 50 μg/mL Na-p-tosyl-L-lysine chloromethyl ketone hydrochloride and processed as Western blots to detect anti-phospho ERK1/2 (T202/Y204) (Cell Signaling Technologies).
lysates samples from single treatment wells are separated on 5-20% SDS-PAGE gels and immunobloting is performed using Immobilon polyvinylidene difluoride membranes (Amersham) according to the manufacturer's instructions. The blots are washed in Tris-buffered saline with 0.1% Tween 20 detergent (TBST) and probed for antibodies against phospho-Thr202/Tyr204-ERK (Cell signaling technologies. Chemiluminescence detection (Amersham, ECL plus) is performed according to the manufacturer's instructions using a Storm densitometer (GE Healthcare; 800 PMT, […]) for imaging and densitometry analysis. Values of over the range of dilution are used to prepare IC50 curves using a 4-parameter fit model. These curves are calculated using GraFit

For assay [2], the system named is laser-induced choroidal neovascularization (CNV). Kind of assay: In vivo choroidal neovascularization (CNV) model. As to conditions: Brown-Norway rats, injection on Day 3, CNV area on Day 10. Set-up: species or system rat. From the text: In Vivo Choroidal Neovascularization (CNV) Model This test measures the capacity of compounds to inhibit CNV progression. CNV is the main cause of severe vision loss in patients suffering from age-related macular degeneration (AMD). Male Brown-Norway rats (Charles River Japan Co., Ltd.) were used in these studies. Rats were anesthetized by intraperitoneal injection of pentobarbital, and the right pupil was dilated with 0.5% tropicamide and 0.5% phenylephrine hydrochloride. The right eye received 6 laser burns between retinal vessels using a slit lamp delivery system of Green laser Photocoagulator (Nidex Inc., Japan), and microscope slide glass with 10 mg/mL hyaluronic acid (SIGMA) used as a contact lens. The laser power was 200 mW for 0.1 second and spot diameter was 100 μm. At the time of laser burn, bubble production was observed; which is an indication of rupture of Bruch's membrane which is important for CNV generation. After animals were anesthetized, and the right pupil dilated (as mentioned above), the right eye of the animal received the compound or vehicle by an injection (3 μL/eye) at doses of 3 or 10 nmol/eye on Day 3. The compounds were dissolved or suspended in CBS, PBS, or other adequate vehicles before injection. On Day 10, the animals were anesthetized with ether, and high molecular weight fluorescein isothiocyanate (FITC)-dextran (SIGMA, 2×10^6 MW) was injected via a tail vein (20 mg/rat). About 30 min after FITC-dextran injection, animals were euthanized by ether or carbon dioxide, and the eyes were removed and fixed with 10% formaline neutral buffer solution. After over 1 hour of fixation, RPE-choroid-sclera flat mounts were obtained by removing cornea, lens and retina from the eyeballs. The flat mounts were mounted in 50% glycerol on a microscope slide, and the portion burned by laser was photographed using a fluorescence microscope (Nikon Corporation, excitation filter: 465-495 nm, absorption filter: 515-555 nm). The CNV area was obtained by measurement of hyper-fluorescence area observed on the photograph using Scion image. The average CNV area of 6 burns was used as an individual value of CNV area, and the average CNV area of compound treated group was compared with that of the vehicle-treated group.

The mark [3] stands for this setting: Rattus norvegicus, 240 h, dose 3 nmol/eye, read-out: Inhibition of CNV Progression (%).

T1 sequence (P35968 806-1356): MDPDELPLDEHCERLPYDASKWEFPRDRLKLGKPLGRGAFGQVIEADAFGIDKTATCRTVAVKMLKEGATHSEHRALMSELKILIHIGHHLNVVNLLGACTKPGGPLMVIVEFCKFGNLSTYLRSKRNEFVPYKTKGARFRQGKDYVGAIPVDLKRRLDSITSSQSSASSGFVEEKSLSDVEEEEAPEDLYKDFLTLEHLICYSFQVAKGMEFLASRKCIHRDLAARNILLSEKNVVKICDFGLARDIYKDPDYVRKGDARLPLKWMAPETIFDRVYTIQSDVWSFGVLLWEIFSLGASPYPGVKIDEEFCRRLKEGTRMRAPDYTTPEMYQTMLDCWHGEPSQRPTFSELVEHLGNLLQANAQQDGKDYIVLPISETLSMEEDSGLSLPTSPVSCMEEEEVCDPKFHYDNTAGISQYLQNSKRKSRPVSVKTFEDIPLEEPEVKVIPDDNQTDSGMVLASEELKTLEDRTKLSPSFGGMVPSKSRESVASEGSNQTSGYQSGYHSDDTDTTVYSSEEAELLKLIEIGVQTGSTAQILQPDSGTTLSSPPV

As to `COCCOCCOCCOCCN1CCC(N(Cc2ccc(-c3cc4nccc(Oc5ccc(NC(=O)NC6CC6)cc5F)c4s3)nc2)C(C)=O)CC1` [Compound 69, N-(1-(2,5,8,11-Tetraoxamidecan-13-yl)piperidin-4-yl)-N-((6-(7-(4-(3-cyclopropylureido)-2-fluorophenoxy)thieno[3,2-b]pyridin-2-yl)pyridin-3-yl)methyl)acetamide], the results for the IC50 (on VEGFR2 (KDR); in assay [1]) were 12 nM and 25 nM, respectively.
For `COCCOCCOCCOCCOC1CN(Cc2ccc(-c3cc4nccc(Oc5ccc(NC(=O)NC6CC6)cc5F)c4s3)nc2)C1` [Compound 60, 1-(4-(2-(5-((3-(2,5,8,11-tetraoxamidecan-13-yloxy)azetidin-1-yl)methyl)pyridin-2-yl)thieno[3,2-b]pyridin-7-yloxy)-3-fluorophenyl)-3-cyclopropylurea] the same measures were 10 nM and 1.5 nM.
With `COCCOCCOCCOCCn1cc(-c2cc3nccc(Oc4ccc(NC(=O)NC5CC5)cc4F)c3s2)nn1` [Compound 30, 1-(4-(2-(1-(2,5,8,11-Tetraoxamidecan-13-yl)-1H-1,2,3-triazol-4-yl)thieno[3,2-b]pyridin-7-yloxy)-3-fluorophenyl)-3-cyclopropylurea], the IC50 is 18 nM at VEGFR2 (KDR) and 70 nM in assay [1] (Homo sapiens). Besides, in assay [2] (setting [3]), the inhibition in vivo at 3 nmol/eye worked out at 26.4%.
`COCCOCCOCCOC(=O)N1CCN(Cc2ccc(-c3cc4nccc(Oc5ccc(NC(=O)NC6CC6)cc5F)c4s3)nc2)CC1` [Compound 50, 2-(2-(2-Methoxyethoxy)ethoxy)ethyl 4-((6-(7-(4-(3-cyclopropylureido)-2-fluorophenoxy)thieno[3,2-b]pyridin-2-yl)pyridin-3-yl)methyl)piperazine-1-carboxylate]: the IC50 was 8 nM on VEGFR2 (KDR) and 0.8 nM in assay [1] (Homo sapiens). The inhibition in vivo at 10 nmol/eye in assay [2] (Rattus norvegicus, 240 h, dose 10 nmol/eye, read-out: Inhibition of CNV Progression (%)) is 80.6%.
In the case of `COCCOCCOCCOCCOc1ccc(NCc2ccc(-c3cc4nccc(Oc5ccc(NC(=O)NC6CC6)cc5F)c4s3)nc2)cc1` [Compound 39], the values for the IC50 (on VEGFR2 (KDR); in assay [1] (Homo sapiens)) were 33 nM and 6 nM, respectively. In assay [2] (setting [3]), the inhibition in vivo at 3 nmol/eye was 24.7%.
For the molecule `COCCOCCOCCOCCN(C(C)=O)C1CCN(Cc2ccc(-c3cc4nccc(Oc5ccc(NC(=O)NC6CC6)cc5F)c4s3)nc2)CC1` [Compound 65, N-(1-((6-(7-(4-(3-Cyclopropylureido)-2-fluorophenoxy)thieno[3,2-b]pyridin-2-yl)pyridin-3-yl)methyl)piperidin-4-yl)-N-(2,5,8,11-tetraoxamidecan-13-yl)acetamide], the IC50 at VEGFR2 (KDR) turned out to be 7 nM; in assay [1], 2 nM. In assay [2] (dose 3 nmol/eye), the “Inhibition of CNV Progression (%)” value was found to be 32.1%.
With `COCCOCCOCCOCCN1CCN(Cc2ccc(-c3cc4nccc(Oc5ccc(NC(=O)NC6CC6)cc5F)c4s3)nc2)CC1` [Compound 7, 1-(4-(2-(5-((4-(2,5,8,11-Tetraoxamidecan-13-yl)piperazin-1-yl)methyl)pyridin-2-yl)thieno[3,2-b]pyridin-7-yloxy)-3-fluorophenyl)-3-cyclopropylurea], the IC50 came to 6 nM at VEGFR2 (KDR) and 0.2 nM in assay [1] (Homo sapiens). For the same molecule, the inhibition in vivo at 3 nmol/eye in assay [2] (setting [3]) is 18.1%.
Consider `CCNC(=O)N(CCOCCOCCOCCOC)C1CCN(Cc2ccc(-c3cc4nccc(Oc5ccc(NC(=O)NC6CC6)cc5F)c4s3)nc2)CC1` [Compound 23, 1-(4-(2-(5-((4-Ethylaminocarbonyl-(2,5,8,11-tetraoxamidecan-13-ylamino)piperidin-1-yl)methyl)pyridin-2-yl)thieno[3,2-b]pyridin-7-yloxy)-3-fluorophenyl)-3-cyclopropylurea], for which the IC50 at VEGFR2 (KDR) came to 18 nM. Further, in assay [2] (setting [3]), the inhibition in vivo at 3 nmol/eye turned out to be 44.2%.
Turning to `O=C(Nc1ccc(Oc2ccnc3cc(-c4ccc(CN5CCN(C(=O)COP(=O)(O)O)CC5)cn4)sc23)c(F)c1)NC1CC1` [Compound 6, 2-(4-((6-(7-(4-(3-Cyclopropylureido)-2-fluorophenoxy)thieno[3,2-b]pyridin-2-yl)pyridin-3-yl)methyl)piperazin-1-yl)-2-oxoethyl dihydrogen phosphate], the values for the IC50 (at VEGFR2 (KDR); in assay [1] (Homo sapiens)) were 9 nM and 0.4 nM, respectively. Besides, the inhibition in vivo at 3 nmol/eye in assay [2] (setting [3]) is 20.9%.
As for `COCCOCCOCCOCCC(=O)OCC(=O)N1CCN(Cc2ccc(-c3cc4nccc(Oc5ccc(NC(=O)NC6CC6)cc5F)c4s3)nc2)CC1` [Compound 18], the IC50 at VEGFR2 (KDR) came to 6 nM. In assay [2] (setting [3]), the inhibition in vivo at 3 nmol/eye came to 42.9%.

Values taken from patent publication US20130096088A1, “Inhibitors of Protein Tyrosine Kinase Activity” (METHYLGENE INC., priority 2011, published 2013).
